Test results taken from the supplement of paper PMC9663587.

Columns and labels:
THZ531 [1] = compound: T1, CN(C)C/C=C/C(=O)Nc1ccc(C(=O)N2CCC[C@@H](Nc3ncc(Cl)c(-c4c[nH]c5ccccc45)n3)C2)cc1 [THZ531]; test: GR value, 72 h; higher = faster growth (1 = untreated, <0 = killing);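 note: breast cancer and non-malignant breast epithelial lines, nine half-log doses, viable cells counted by Hoechst and LIVE/DEAD dye imaging versus time-zero plates and DMSO controls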
[2] = compound: CCc1cnn2c(NCc3ccc[n+]([O-])c3)cc(N3CCCC[C@H]3CCO)nc12; test: as above
[3] = compound: CCN1CCN(Cc2ccc(Nc3ncc(F)c(-c4cc(F)c5nc(C)n(C(C)C)c5c4)n3)nc2)CC1; test: as above
LEE011/Ribociclib = compound: CN(C)C(=O)c1cc2cnc(Nc3ccc(N4CCNCC4)cn3)nc2n1C1CCCC1 [LEE011/Ribociclib]; test: as above
BSJ-03-123 = compound: CC(=O)c1c(C)c2cnc(Nc3ccc(N4CCN(CCOCCOCCOCCNC(=O)COc5cccc6c5C(=O)N(C5CCC(=O)NC5=O)C6=O)CC4)cn3)nc2n(C2CCCC2)c1=O [BSJ-03-123]; test: as above
YKL-5-124 = compound: C=CC(=O)Nc1ccc(C(=O)Nc2[nH]nc3c2CN(C(=O)N[C@H](CN(C)C)c2ccccc2)C3(C)C)cc1 [YKL-5-124]; test: as above
THZ1 = compound: CN(C)C/C=C/C(=O)Nc1ccc(C(=O)Nc2cccc(Nc3ncc(Cl)c(-c4c[nH]c5ccccc45)n3)c2)cc1 [THZ1]; test: as above
[4] = compound: CC(=O)c1c(C)c2cnc(Nc3ccc(N4CCNCC4)cn3)nc2n(C2CCCC2)c1=O; test: as above
THZ531 [5] = compound: T1, THZ531
Ceritinib/LDK378 = compound: Cc1cc(Nc2ncc(Cl)c(Nc3ccccc3S(=O)(=O)C(C)C)n2)c(OC(C)C)cc1C1CCNCC1 [Ceritinib/LDK378]
AZD6738 = compound: C[C@@H]1COCCN1c1cc(C2([S@](C)(=N)=O)CC2)nc(-c2cc[nH]c3nccc2-3)n1 [AZD6738]
Cediranib/AZD2171 = compound: COc1cc2c(Oc3ccc4[nH]c(C)cc4c3F)ncnc2cc1OCCCN1CCCC1 [Cediranib/AZD2171]
Paclitaxel = compound: CC(=O)O[C@H]1C(=O)[C@@]2(C)[C@H]([C@H](OC(=O)c3ccccc3)[C@]3(O)C[C@H](OC(=O)[C@H](O)[C@@H](NC(=O)c4ccccc4)c4ccccc4)C(C)=C1C3(C)C)[C@]1(OC(C)=O)CO[C@@H]1C[C@@H]2O [Paclitaxel]
Rucaparib = compound: CNCc1ccc(-c2[nH]c3cc(F)cc4c3c2CCNC4=O)cc1 [Rucaparib]
Tivantinib/ARQ197 = compound: O=C1NC(=O)[C@@H](c2cn3c4c(cccc24)CCC3)[C@@H]1c1c[nH]c2ccccc12 [Tivantinib/ARQ197]
BSJ-01-175 = compound: CN(C)C/C=C/C(=O)Nc1ccc(O[C@@H]2CCC[C@@H](Nc3ncc(Cl)c(-c4c[nH]c5ccccc45)n3)C2)cc1 [BSJ-01-175]
Pictilisib/GDC0941 = compound: CS(=O)(=O)N1CCN(Cc2cc3nc(-c4cccc5[nH]ncc45)nc(N4CCOCC4)c3s2)CC1 [Pictilisib/GDC0941]
senexin b = compound: CN1CCN(C(=O)c2ccc3cc(CCNc4ncnc5ccc(C#N)cc45)ccc3c2)CC1 [senexin b]
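Throughout, for GR50, 72 h: breast cancer and non-malignant breast epithelial cell lines, Deep Dye Drop or Dye Drop imaging, nine half-log doses, GR normalized to time-zero plates and DMSO-only controls.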

Cell Line: MDAMB468
- GR value (THZ531 [1]; 0.0001 µM): 1.02 GR
- GR value (THZ531 [1]; 0.0003162 µM): 1 GR
- GR value (THZ531 [1]; 0.001 µM): 0.926 GR
- GR value (THZ531 [1]; 0.003162 µM): 1.04 GR
- GR value (THZ531 [1]; 0.01 µM): 0.906 GR
- GR value (THZ531 [1]; 0.03162 µM): 0.636 GR
- GR value (THZ531 [1]; 0.1 µM): 0.082 GR
- GR value (THZ531 [1]; 0.3162 µM): -0.19 GR
- GR value (THZ531 [1]; 1 µM): -0.188 GR
- GR value ([2]; 0.0001 µM): 0.988 GR
- GR value ([2]; 0.0003162 µM): 1.01 GR
- GR value ([2]; 0.001 µM): 0.985 GR
- GR value ([2]; 0.003162 µM): 1.03 GR
- GR value ([2]; 0.01 µM): 0.863 GR
- GR value ([2]; 0.03162 µM): -0.106 GR
- GR value ([2]; 0.1 µM): -0.255 GR
- GR value ([2]; 0.3162 µM): -0.339 GR
- GR value ([2]; 1 µM): -0.412 GR
- GR value ([3]; 0.001 µM): 0.94 GR
- GR value ([3]; 0.003162 µM): 0.966 GR
- GR value ([3]; 0.01 µM): 0.979 GR
- GR value ([3]; 0.03162 µM): 1.04 GR
- GR value ([3]; 0.1 µM): 1.06 GR
- GR value ([3]; 0.3162 µM): 1.01 GR
- GR value ([3]; 1 µM): 0.811 GR
- GR value ([3]; 3.162 µM): 0.321 GR
- GR value ([3]; 10 µM): -0.34 GR
- GR value (LEE011/Ribociclib; 0.001 µM): 0.985 GR
- GR value (LEE011/Ribociclib; 0.003162 µM): 1.04 GR
- GR value (LEE011/Ribociclib; 0.01 µM): 0.951 GR
- GR value (LEE011/Ribociclib; 0.03162 µM): 1.01 GR
- GR value (LEE011/Ribociclib; 0.1 µM): 1.05 GR
- GR value (LEE011/Ribociclib; 0.3162 µM): 0.965 GR
- GR value (LEE011/Ribociclib; 1 µM): 0.935 GR
- GR value (LEE011/Ribociclib; 3.162 µM): 1 GR
- GR value (LEE011/Ribociclib; 10 µM): 1.02 GR
- GR value (BSJ-03-123; 0.001 µM): 1 GR
- GR value (BSJ-03-123; 0.003162 µM): 0.923 GR
- GR value (BSJ-03-123; 0.01 µM): 0.902 GR
- GR value (BSJ-03-123; 0.03162 µM): 0.806 GR
- GR value (BSJ-03-123; 0.1 µM): 0.91 GR
- GR value (BSJ-03-123; 0.3162 µM): 0.771 GR
- GR value (BSJ-03-123; 1 µM): 0.636 GR
- GR value (BSJ-03-123; 3.162 µM): 0.476 GR
- GR value (BSJ-03-123; 10 µM): -0.0278 GR
- GR value (YKL-5-124; 0.001 µM): 0.23 GR
- GR value (YKL-5-124; 0.003162 µM): 0.077 GR
- GR value (YKL-5-124; 0.01 µM): 0 GR
- GR value (YKL-5-124; 0.03162 µM): -0.101 GR
- GR value (YKL-5-124; 0.1 µM): -0.149 GR
- GR value (YKL-5-124; 0.3162 µM): -0.177 GR
- GR value (YKL-5-124; 1 µM): -0.217 GR
- GR value (YKL-5-124; 3.162 µM): -0.309 GR
- GR value (YKL-5-124; 10 µM): -0.549 GR
- GR value (THZ1; 0.0001 µM): 1 GR
- GR value (THZ1; 0.0003162 µM): 1.07 GR
- GR value (THZ1; 0.001 µM): 1 GR
- GR value (THZ1; 0.003162 µM): 0.92 GR
- GR value (THZ1; 0.01 µM): 0.76 GR
- GR value (THZ1; 0.03162 µM): 0.375 GR
- GR value (THZ1; 0.1 µM): -0.131 GR
- GR value (THZ1; 0.3162 µM): -0.226 GR
- GR value (THZ1; 1 µM): -0.435 GR
- GR value ([4]; 0.0003162 µM): 0.963 GR
- GR value ([4]; 0.001 µM): 1.02 GR
- GR value ([4]; 0.003162 µM): 1.02 GR
- GR value ([4]; 0.01 µM): 1.05 GR
- GR value ([4]; 0.03162 µM): 1.02 GR
- GR value ([4]; 0.1 µM): 1.01 GR
- GR value ([4]; 0.3162 µM): 1.06 GR
- GR value ([4]; 1 µM): 1.05 GR
- GR value ([4]; 3.162 µM): 1.05 GR
- GR50, 72 h (THZ531 [5]): 0.0412 µM
- GR50, 72 h (Ceritinib/LDK378): 0.767 µM
- GR50, 72 h (AZD6738): > 10 µM
- GR50, 72 h (Cediranib/AZD2171): 3.92 µM
- GR50, 72 h (Paclitaxel): 0.00135 µM
- GR50, 72 h (Rucaparib): 8.56 µM
- GR50, 72 h (Tivantinib/ARQ197): 0.307 µM
- GR50, 72 h (BSJ-01-175): 0.00931 µM
- GR50, 72 h (Pictilisib/GDC0941): 2.33 µM
- GR50, 72 h (senexin b): 2.04 µM
